Reference: US11427548B2 (Arvinas Operations, Inc., priority 2015, dated 2022)
Read-outs that look alike come from different tables or passages of the source.

Target: T1, Androgen Receptor (Homo sapiens, UniProt P10275)
T1 construct: endogenous in cells; host or cells: VCaP cells
T1 sequence (P10275 1-920): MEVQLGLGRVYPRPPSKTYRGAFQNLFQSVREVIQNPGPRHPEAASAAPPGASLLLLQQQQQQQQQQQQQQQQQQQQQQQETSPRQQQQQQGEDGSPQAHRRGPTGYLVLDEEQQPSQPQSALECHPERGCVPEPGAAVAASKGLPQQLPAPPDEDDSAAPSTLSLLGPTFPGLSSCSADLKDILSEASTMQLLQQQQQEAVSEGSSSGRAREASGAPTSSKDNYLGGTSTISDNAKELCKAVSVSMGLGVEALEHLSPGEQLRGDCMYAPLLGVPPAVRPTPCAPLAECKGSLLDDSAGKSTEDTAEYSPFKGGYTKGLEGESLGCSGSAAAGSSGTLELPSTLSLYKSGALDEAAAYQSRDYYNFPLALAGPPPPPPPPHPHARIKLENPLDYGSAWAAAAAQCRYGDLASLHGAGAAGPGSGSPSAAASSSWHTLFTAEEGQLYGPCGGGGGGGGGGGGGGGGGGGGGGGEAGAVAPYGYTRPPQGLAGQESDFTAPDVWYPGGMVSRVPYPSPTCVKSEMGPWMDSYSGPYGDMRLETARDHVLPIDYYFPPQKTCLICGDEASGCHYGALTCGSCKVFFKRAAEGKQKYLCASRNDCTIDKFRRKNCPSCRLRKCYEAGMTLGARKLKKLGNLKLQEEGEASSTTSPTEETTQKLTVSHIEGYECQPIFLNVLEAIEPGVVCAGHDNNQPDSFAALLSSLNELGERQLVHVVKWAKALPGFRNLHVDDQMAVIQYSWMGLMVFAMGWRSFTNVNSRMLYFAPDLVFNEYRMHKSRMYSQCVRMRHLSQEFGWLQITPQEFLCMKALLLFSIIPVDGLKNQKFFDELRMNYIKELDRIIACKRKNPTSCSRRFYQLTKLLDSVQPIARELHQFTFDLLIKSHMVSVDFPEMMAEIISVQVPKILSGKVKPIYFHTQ
Test: Androgen Receptor ELISA assay (PathScan AR ELISA) in VCaP cells: AR degradation, Dmax and DC50
Format: cell-based
Summary of the method: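 VCaP cells in phenol red-free RPMI with 5% charcoal-stripped FBS were grown at least 3 days, then given compound as 7 half-log doses in 0.1% DMSO with 0.1 nM R1881 for 24 h. Lysates went into a sandwich AR ELISA with TMB read at 450 nm.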

[1] = read-out: VCaP DC50; VCaP cells; Table 34
[2] = VCaP cells; Table 34; read-out: VCaP DC50
[3] = VCaP, VCaP cells; Table 34; read-out: VCaP Dmax (%)

DC50 [2] [nM] | Dmax [3] [%] | Structure (SMILES) | Dmax (VCaP, read-out: VCaP Dmax (%)) [%] | DC50 [1] [nM]
– | – | CC(C)(C)[C@H](NC(=O)COCCCOCCCCOc1ccc(N2C(=S)N(c3ccc(C#N)c(Cl)c3)C(=O)C2(C)C)c(F)c1)C(=O)N1C[C@H](O)C[C@H]1C(=O)NCc1ccc(-c2cnco2)cc1 [Example 336] | > 71 | < 50
– | – | CC(C)(C)[C@H](NC(=O)COCCCOCCCCOc1ccc(N2C(=S)N(c3ccc(C#N)c(Cl)c3)C(=O)C2(C)C)cc1)C(=O)N1C[C@H](O)C[C@H]1C(=O)NCc1ccc(-c2cnco2)cc1 [Example 337] | > 71 | < 50
< 50 | 51 to 70 | Cc1ncoc1-c1ccc(CNC(=O)[C@@H]2C[C@@H](O)CN2C(=O)[C@@H](NC(=O)COCCCOCCCCOc2ccc(N3C(=S)N(c4cnc(C#N)c(Cl)c4)C(=O)C3(C)C)cc2)C(C)(C)C)cc1 [Example 338] | – | –
< 50 | > 71 | CC(C)(C)[C@H](NC(=O)COCCCCCOCCn1cc(C(=O)N[C@H]2C(C)(C)[C@H](Oc3ccc(C#N)c(Cl)c3)C2(C)C)cn1)C(=O)N1C[C@H](O)C[C@H]1C(=O)NCc1ccc(-c2cncs2)cc1 [Example 339] | – | –
– | – | CC(C)(C)[C@H](NC(=O)COCCCOCCCCCOc1ccc(N2C(=S)N(c3ccc(C#N)c(Cl)c3)C(=O)C2(C)C)cc1)C(=O)N1C[C@H](O)C[C@H]1C(=O)NCc1ccc(-c2cnco2)cc1 [Example 345] | 51 to 70 | < 50
– | – | CC(C)(C)[C@H](NC(=O)COCCCCOCCCCOc1ccc(N2C(=S)N(c3ccc(C#N)c(Cl)c3)C(=O)C2(C)C)cc1)C(=O)N1C[C@H](O)C[C@H]1C(=O)NCc1ccc(-c2cnco2)cc1 [Example 346] | 51 to 70 | < 50
< 50 | 51 to 70 | CC(C)(C)[C@H](NC(=O)COCCCCOCCn1cc(C(=O)N[C@H]2C(C)(C)[C@H](Oc3ccc(C#N)c(Cl)c3)C2(C)C)cn1)C(=O)N1C[C@H](O)C[C@H]1C(=O)NCc1ccc(-c2cncs2)cc1 [Example 347] | – | –
< 50 | > 71 | Cc1ncsc1-c1ccc([C@H](C)NC(=O)[C@@H]2C[C@@H](O)CN2C(=O)[C@@H](NC(=O)COCCCOCCCCOc2ccc(N3C(=S)N(c4cnc(C#N)c(C(F)(F)F)c4)C(=O)C3(C)C)cc2)C(C)(C)C)cc1 [Example 365] | – | –
– | – | Cc1ncsc1-c1ccc(CNC(=O)[C@@H]2C[C@@H](O)CN2C(=O)[C@H](C)NC(=O)COCCCOCCCCOc2ccc(N3C(=S)N(c4ccc(C#N)c(C(F)(F)F)c4)C(=O)C3(C)C)cc2)cc1 [Example 366] | – | < 50
– | – | CC(C)(C)[C@H](NC(=O)COCCCOCCCCOc1ccc(N2C(=S)N(c3ccc(C#N)c(C(F)(F)F)c3)C(=O)C2(C)C)cc1)C(=O)N1C[C@H](O)C[C@H]1C(=O)NCc1ccc(-c2cnco2)c(F)c1 [Example 367] | 51 to 70 | < 50
– | – | CC(C)(C)[C@H](NC(=O)COCCCOCCCCOc1ccc(N2C(=S)N(c3cc(Cl)c(C#N)cc3F)C(=O)C2(C)C)cc1F)C(=O)N1C[C@H](O)C[C@H]1C(=O)NCc1ccc(-c2cnco2)cc1 [Example 368] | – | < 50
– | – | CC(C)(C)[C@H](NC(=O)COCCCOCCCCOc1ccc(N2C(=S)N(c3cc(Cl)c(C#N)cc3F)C(=O)C2(C)C)cc1)C(=O)N1C[C@H](O)C[C@H]1C(=O)NCc1ccc(-c2cnco2)cc1 [Example 369] | – | < 50
– | – | CC(C)(C)[C@H](NC(=O)COCCCOCCCCOc1ccc(N2C(=S)N(c3ccc(C#N)c(C(F)(F)F)c3)C(=O)C2(C)C)cc1)C(=O)N1C[C@H](O)C[C@H]1C(=O)NCc1ccc(-c2ocnc2F)cc1 [Example 370] | 26 to 50 | < 50
< 50 | > 71 | CC(C)(C)[C@H](NC(=O)COc1ccc(OCCOc2ccc(N3C(=S)N(c4cnc(C#N)c(C(F)(F)F)c4)C(=O)C3(C)C)cc2)cc1)C(=O)N1C[C@H](O)C[C@H]1C(=O)NCc1ccc(-c2cnco2)cc1 [Example 371] | – | –
– | – | Cc1ncsc1-c1ccc([C@H](C)NC(=O)[C@@H]2C[C@@H](O)CN2C(=O)[C@@H](NC(=O)COCCCCOCCCCOc2ccc(N3C(=S)N(c4ccc(C#N)c(C(F)(F)F)c4)C(=O)C3(C)C)cc2)C(C)(C)C)cc1 [Example 373] | 51 to 70 | < 50
– | – | Cc1ncsc1-c1ccc(CNC(=O)[C@@H]2C[C@@H](O)CN2C(=O)[C@@H](NC(=O)C(C)Oc2ccc(OCCOc3ccc(N4C(=S)N(c5ccc(C#N)c(C(F)(F)F)c5)C(=O)C4(C)C)cc3)cc2)C(C)(C)C)cc1 (some centres unmarked) [Example 374] | 26 to 50 | < 50
– | – | CC(C)(C)[C@H](NC(=O)COCCCOCCCCOc1ccc(N2C(=S)N(c3ccc(C#N)c(C(F)(F)F)c3)C(=O)C2(C)C)cc1)C(=O)N1C[C@H](O)C[C@H]1C(=O)NCc1ccc(-c2cn[nH]c2)cc1 [Example 376] | 51 to 70 | < 50
– | – | Cc1n[nH]cc1-c1ccc(CNC(=O)[C@@H]2C[C@@H](O)CN2C(=O)[C@@H](NC(=O)COCCCOCCCCOc2ccc(N3C(=S)N(c4ccc(C#N)c(C(F)(F)F)c4)C(=O)C3(C)C)cc2)C(C)(C)C)cc1 [Example 377] | 51 to 70 | 51 to 500
– | – | Cc1ncsc1-c1ccc(CNC(=O)[C@@H]2C[C@@H](O)CN2C(=O)[C@@H](NC(=O)COc2ccc3cc(COc4ccc(N5C(=S)N(c6ccc(C#N)c(C(F)(F)F)c6)C(=O)C5(C)C)cc4)ccc3c2)C(C)(C)C)cc1 [Example 378] | 51 to 70 | < 50
– | – | Cc1ncsc1-c1ccc(CNC(=O)C2C[C@@H](O)CN2C(=O)[C@@H](NC(=O)CN(C)c2ccc(OCCOc3ccc(N4C(=S)N(c5ccc(C#N)c(C(F)(F)F)c5)C(=O)C4(C)C)cc3)cc2)C(C)(C)C)cc1 (some centres unmarked) [Example 379] | 51 to 70 | < 50
– | – | Cc1ncsc1-c1ccc(CNC(=O)[C@H]2C[C@@H](O)CN2C(=O)[C@@H](NC(=O)[C@@H](C)Oc2ccc(OCCOc3ccc(N4C(=S)N(c5ccc(C#N)c(C(F)(F)F)c5)C(=O)C4(C)C)cc3)cc2)C(C)(C)C)cc1 [Example 381] | 26 to 50 | < 50
– | – | Cc1ncsc1-c1ccc(CNC(=O)[C@H]2C[C@@H](O)CN2C(=O)[C@@H](NC(=O)[C@H](C)Oc2ccc(OCCOc3ccc(N4C(=S)N(c5ccc(C#N)c(C(F)(F)F)c5)C(=O)C4(C)C)cc3)cc2)C(C)(C)C)cc1 [Example 382] | 26 to 50 | < 50
< 50 | > 71 | Cc1ncoc1-c1ccc(CNC(=O)[C@@H]2C[C@@H](O)CN2C(=O)[C@@H](NC(=O)COCCCCOc2ccc(Oc3ccc(N4C(=S)N(c5cnc(C#N)c(C(F)(F)F)c5)C(=O)C4(C)C)cc3)cc2)C(C)(C)C)cc1 [Example 383] | – | –
< 50 | > 71 | Cc1ncsc1-c1ccc(CNC(=O)[C@@H]2C[C@@H](O)CN2C(=O)[C@@H](NC(=O)COCCCCOc2ccc(Oc3ccc(N4C(=S)N(c5cnc(C#N)c(C(F)(F)F)c5)C(=O)C4(C)C)cc3)cc2)C(C)(C)C)cc1 [Example 384] | – | –
< 50 | > 71 | Cc1ncoc1-c1ccc(CNC(=O)[C@@H]2C[C@@H](O)CN2C(=O)[C@@H](NC(=O)COCCCOc2ccc(Oc3ccc(N4C(=S)N(c5cnc(C#N)c(C(F)(F)F)c5)C(=O)C4(C)C)cc3)cc2)C(C)(C)C)cc1 [Example 386] | – | –
– | < 25 | Cc1ncsc1-c1ccc(CNC(=O)[C@@H]2C[C@@H](O)CN2C(=O)[C@@H](NC(=O)COCCCOc2ccc(C(=O)N[C@H]3C(C)(C)[C@H](Oc4ccc(C#N)c(Cl)c4)C3(C)C)cc2)C(C)(C)C)cc1 [Example 387] | – | –
< 50 | > 71 | Cc1ncsc1-c1ccc([C@H](C)NC(=O)[C@@H]2C[C@@H](O)CN2C(=O)[C@@H](NC(=O)COCC#CCOc2ccc(C(=O)N[C@H]3C(C)(C)[C@H](Oc4ccc(C#N)c(Cl)c4)C3(C)C)cc2)C(C)(C)C)cc1 [Example 388] | – | –
< 50 | 51 to 70 | Cc1ncoc1-c1ccc([C@H](C)NC(=O)[C@@H]2C[C@@H](O)CN2C(=O)[C@@H](NC(=O)COCCCCNc2ccc(-c3ccc(N4C(=S)N(c5cnc(C#N)c(C(F)(F)F)c5)C(=O)C4(C)C)cc3)cc2)C(C)(C)C)cc1 [Example 390] | – | –
< 50 | 51 to 70 | Cc1ncsc1-c1ccc(CNC(=O)[C@@H]2C[C@@H](O)CN2C(=O)[C@@H](NC(=O)COCCCCNc2ccc(-c3ccc(N4C(=S)N(c5cnc(C#N)c(C(F)(F)F)c5)C(=O)C4(C)C)cc3)cc2)C(C)(C)C)cc1 [Example 391] | – | –
< 50 | 51 to 70 | Cc1ncsc1-c1ccc(CNC(=O)[C@@H]2C[C@@H](O)CN2C(=O)[C@@H](NC(=O)CNC(=O)CCCOc2ccc(C(=O)N[C@H]3C(C)(C)[C@H](Oc4ccc(C#N)c(Cl)c4)C3(C)C)cc2)C(C)(C)C)cc1 [Example 393] | – | –
